Reference: patent publication US12448399B2, “Cereblon-based KRAS degrading PROTACs and uses related thereto” (Arvinas Operations, Inc., priority 2023, dated 2025)

Target: T1, KRas-G12D (Homo sapiens, UniProt P01116, G12D)
T1 construct: insert the HiBiT tag onto the N-terminus of one or more of the endogenous KRas alleles; host or cells: AsPC-1 HiBiT-KRasG12D knock-in clone (one tagged allele, two untagged KRasG12D alleles)
Test: HiBiT Degradation Assay (G12D), AsPC-1 HiBiT-KRasG12D cells, 24 hr
Format: cell-based
Conditions: for Dmax: ASPC1, AsPC-1 cells, maximum degradation observed; for DC50: AsPC-1 cells
Experimental: AsPC-1 (CRL-1682) cells were purchased from ATCC and are homozygous for the G12D mutation in KRas. AsPC-1 cells were cultured in GIBCO RPMI-1640 (ThermoFisher Scientific, catalog #61870-036, with Glutamax, no HEPES, no Na Pyruvate) supplemented with 10% FBS (ThermoFisher Scientific, catalog #2060357) and 1× Penicillin-Streptomycin (ThermoFisher Scientific, catalog #15140122, 10000 U/ml, 100×). For degradation assays, 384 well plates were used. Alamar blue was purchased from ThermoFisher Scientific (A50101) and used according to manufacturer instructions. The Nano-Glo® HiBiT Lytic Detection System and Nano-Glo® HiBiT Blotting System were purchased from Promega (#N3050 and #N2410) and used according to manufacturer instructions.
To create the AsPC-1 HiBiT-KRasG12D cell line, CRISPR-Cas9 was used to insert the HiBiT tag onto the N-terminus of one or more of the endogenous KRas alleles. See Schwinn, M. K. et al. (2018) CRISPR-mediated tagging of endogenous proteins with a luminescent peptide, ACS Chem. Biol. 13(2), 467-474. After knock-in of the tag, individual clones were isolated by single cell dilution and screened for HiBiT insertion by PCR. A clone was identified that contained the desired HiBiT-KRasG12D sequence at one allele while the remaining two KRasG12D alleles were untagged. This clone was used in further studies.
AsPC-1 HiBiT-KRasG12D cells were plated at 9000 or 15,000 cells/well in a 384 well plate (Corning #3770). Compounds of the present disclosure and positive controls were diluted in the appropriate cell media and applied to the plated cells resulting in a final concentration titration of 10 μM to […] in 0.5% DMSO. Gambogic acid was used as a positive control for cytotoxicity and titrated from 10 μM to 78 nM. All assays were performed in triplicate. Cells were treated with compounds for 24 hr at 37° C. in an incubator containing 5% CO2. Following treatment, alamar blue was used to determine if any compounds led to a loss in cell viability after 24 hr. The 10× alamar blue reagent was added to a final concentration of 1× as recommended by the manufacturer and cells were returned to the incubator for 4 hr. Plates were then allowed to equilibrate to RT and fluorescence was measured using a Perkin-Elmer EnVision. After completion of the fluorescence read, the liquid from each well was removed and the cells were washed with PBS. The Nano-Glo® HiBiT detection reagent was prepared according to the manufacturer's instructions and added to each well after the PBS wash was removed. Following incubation at room temperature for 45 min, the luminescence was read using the ultra-sensitive luminescence aperture on the Envision instrument.
Fluorescence values from the alamar blue treatment were normalized to the DMSO-only control for each compound titration. HiBiT luminescence was normalized to the DMSO-only control and the fractional HiBiT signal was plotted versus the log of the PROTAC concentration and fit to a 4-parameter dose-response model to obtain the concentration of the compound that leads to half maximal degradation (DC50) as well as the maximum degradation observed (Dmax, conventionally expressed as a percentage of control).

T1 sequence (P01116 1-188 isoform P01116-2 G12D): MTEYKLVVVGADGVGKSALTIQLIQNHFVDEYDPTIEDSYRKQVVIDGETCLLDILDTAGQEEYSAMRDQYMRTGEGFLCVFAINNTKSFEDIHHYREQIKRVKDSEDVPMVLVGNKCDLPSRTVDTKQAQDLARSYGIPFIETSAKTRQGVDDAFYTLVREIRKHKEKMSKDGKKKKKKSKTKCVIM

| DC50 | SMILES | Dmax |
| --- | --- | --- |
| > 1000 nM | CCc1cccc2cc(O)cc(-c3ncc4c(N5CC6CCC(C5)N6)nc(OCCN5CCN(c6ccc(C(=O)NC7CCC(=O)NC7=O)c(F)c6)CC5)nc4c3F)c12 (stereo not drawn) [Compound 37] |  |
| 100 to 5250 nM | CCc1cccc2cc(O)cc(-c3ncc4c(N5CC6CCC(C5)N6)nc(OCCN5CCC(c6ccc7c(c6)CN(C6CCC(=O)NC6=O)C7=O)CC5)nc4c3F)c12 (stereo not drawn) [Compound 38] |  |
| > 1000 nM | CCc1cccc2cc(O)cc(-c3ncc4c(N5CC6CCC(C5)N6C)nc(OCCN5CCC(CC6CCN(CC7CCN(c8cccc9c8CN(C8CCC(=O)NC8=O)C9=O)CC7)CC6)CC5)nc4c3F)c12 (stereo not drawn) [Compound 42, 3-[4-[4-[[4-[[1-[2-[7-(8-ethyl-3-hydroxy-1-naphthyl)-8-fluoro-4-(8-methyl-3,8-diazabicyclo[3.2.1]octan-3-yl)pyrido[4,3-d]pyrimidin-2-yl]oxyethyl]-4-piperidyl]methyl]-1-piperidyl]methyl]-1-piperidyl]-1-oxo-isoindolin-2-yl] piperidine-2,6-dione] |  |
| > 1000 nM | CCc1cccc2cc(O)cc(-c3nc(N4CC5CCC(C4)N5)c4cnc(OCCN5CCC(CC6CCN(CC7CCN(c8cccc9c8CN(C8(C)CCC(=O)NC8=O)C9=O)CC7)CC6)CC5)nc4c3F)c12 (stereo not drawn) [Compound 44] |  |
| 250 to 1000 nM | CCc1cccc2cc(O)cc(-c3ncc4c(N5CC6CCC(C5)N6)nc(OCCN5CCC(CC6CCN(c7cccc8c7CN(C7CCC(=O)N(C)C7=O)C8=O)CC6)CC5)nc4c3F)c12 (stereo not drawn) [Compound 45] |  |
| > 1000 nM | CCc1cccc2cc(O)cc(-c3ncc4c(N5CC6CCC(C5)N6)nc(OCCN5CCC(CC6CCN(CC7CCN(c8cccc9c8CN(C8CCC(=O)N(C)C8=O)C9=O)CC7)CC6)CC5)nc4c3F)c12 (stereo not drawn) [Compound 46] |  |
| > 1000 nM | CCc1cccc2cc(O)cc(-c3ncc4c(N5CC6CCC(C5)N6C)nc(OC[C@]56CCCN5[C@@H](COC(=O)N5CCN(c7ccc8c(c7)CN(C7CCC(=O)NC7=O)C8=O)CC5)CC6)nc4c3F)c12 (stereo partly drawn) [Compound 48, [(3R,8R)-8-[[7-(8-ethyl-3-hydroxy-1-naphthyl)-8-fluoro-4-(8-methyl-3,8-diazabicyclo[3.2.1]octan-3-yl)pyrido[4,3-d]pyrimidin-2-yl]oxymethyl]-1,2,3,5,6,7-hexahydropyrrolizin-3-yl]methyl4-[2-(2,6-dioxo-3-piperidyl)-1-oxo-isoindolin-5-yl]piperazine-1-carboxylate] |  |
| > 1000 nM | CCc1cccc2cc(O)cc(-c3ncc4c(N5CC6CCC(C5)N6C)nc(OC[C@@]56CCCN5[C@H](COC(=O)N5CCN(c7cccc8c7CN(C7CCC(=O)NC7=O)C8=O)CC5)CC6)nc4c3F)c12 (stereo partly drawn) [Compound 49, [(3S,8S)-8-[[7-(8-ethyl-3-hydroxy-1-naphthyl)-8-fluoro-4-(8-methyl-3,8-diazabicyclo[3.2.1]octan-3-yl)pyrido[4,3-d]pyrimidin-2-yl]oxymethyl]-1,2,3,5,6,7-hexahydropyrrolizin-3-yl]methyl 4-[2-(2,6-dioxo-3-piperidyl)-1-oxo-isoindolin-4-yl]piperazine-1-carboxylate] |  |
| > 1000 nM | CCc1cccc2cc(O)cc(-c3ncc4c(N5CC6CCC(C5)N6C)nc(OC[C@]56CCCN5[C@@H](COC(=O)N5CCN(c7cccc8c7CN(C7CCC(=O)NC7=O)C8=O)CC5)CC6)nc4c3F)c12 (stereo partly drawn) [Compound 51, [(3R,8R)-8-[[7-(8-ethyl-3-hydroxy-1-naphthyl)-8-fluoro-4-(8-methyl-3,8-diazabicyclo[3.2.1]octan-3-yl)pyrido[4,3-d]pyrimidin-2-yl]oxymethyl]-1,2,3,5,6,7-hexahydropyrrolizin-3-yl]methyl4-[2-(2,6-dioxo-3-piperidyl)-1-oxo-isoindolin-4-yl]piperazine-1-carboxylate] |  |
| 100 to 5250 nM | CCc1cccc2cc(O)cc(-c3ncc4c(N5CC6CCC(C5)N6)nc(OC[C@]56CCCN5[C@@H](COC(=O)N5CCN(c7ccc8c(c7)CN(C7CCC(=O)N(C)C7=O)C8=O)CC5)CC6)nc4c3F)c12 (stereo partly drawn) [Compound 53, [(3R,8R)-8-[[4-(3,8-diazabicyclo[3.2.1]octan-3-yl)-7-(8-ethyl-3-hydroxy-1-naphthyl)-8-fluoro-pyrido[4,3-d]pyrimidin-2-yl]oxymethyl]-1,2,3,5,6,7-hexahydropyrrolizin-3-yl]methyl4-[2-(1-methyl-2,6-dioxo-3-piperidyl)-1-oxo-isoindolin-5-yl]piperazine-1-carboxylate] |  |

| SMILES | DC50 | Dmax |
| --- | --- | --- |
| C#Cc1c(F)ccc2cc(O)cc(-c3ncc4c(N5CC6CCC(C5)N6)nc(OCCN5CCC(CC6CCN(c7cccc8c7CN(C7CCC(=O)NC7=O)C8=O)CC6)CC5)nc4c3F)c12 (stereo not drawn) [Compound 35, 3-[4-[4-[[1-[2-[4-(3,8-diazabicyclo[3.2.1]octan-3-yl)-7-(8-ethynyl-7-fluoro-3-hydroxy-1-naphthyl)-8-fluoro-pyrido[4,3-d]pyrimidin-2-yl]oxyethyl]-4-piperidyl]methyl]-1-piperidyl]-1-oxo-isoindolin-2-yl]piperidine-2,6-dione] | 100 to 5250 nM | > 70% |
| CCc1cccc2cc(O)cc(-c3ncc4c(N5CC6CCC(C5)N6)nc(OCCN5CCN(c6ccc7c(c6)CN(C6CCC(=O)NC6=O)C7=O)CC5)nc4c3F)c12 (stereo not drawn) [Compound 39] | 250 to 1000 nM | ≤ 25% |
| CCc1cccc2cc(O)cc(-c3ncc4c(N5CC6CCC(C5)N6)nc(OCCN5CCN(c6ccc7c(c6)C(=O)N(C6CCC(=O)NC6=O)C7=O)CC5)nc4c3F)c12 (stereo not drawn) [Compound 40] | > 1000 nM | ≤ 25% |
| C#Cc1c(F)ccc2cc(O)cc(-c3ncc4c(N5CC6CCC(C5)N6)nc(OCCN5CCC(CC6CCN(CC7CCN(c8cccc9c8CN(C8CCC(=O)NC8=O)C9=O)CC7)CC6)CC5)nc4c3F)c12 (stereo not drawn) [Compound 43, 3-[4-[4-[[4-[[1-[2-[4-(3,8-diazabicyclo[3.2.1]octan-3-yl)-7-(8-ethynyl-7-fluoro-3-hydroxy-1-naphthyl)-8-fluoro-pyrido[4,3-d]pyrimidin-2-yl]oxyethyl]-4-piperidyl]methyl]-1-piperidyl]methyl]-1-piperidyl]-1-oxo-isoindolin-2-yl] piperidine-2,6-dione] | < 5100 nM | > 70% |
| CCc1cccc2cc(O)cc(-c3ncc4c(N5CC6CCC(C5)N6C)nc(OC[C@@]56CCCN5[C@H](COC(=O)N5CCN(c7ccc8c(c7)CN(C7CCC(=O)NC7=O)C8=O)CC5)CC6)nc4c3F)c12 (stereo partly drawn) [Compound 47, [(3S,8S)-8-[[7-(8-ethyl-3-hydroxy-1-naphthyl)-8-fluoro-4-(8-methyl-3,8-diazabicyclo[3.2.1]octan-3-yl)pyrido[4,3-d]pyrimidin-2-yl]oxymethyl]-1,2,3,5,6,7-hexahydropyrrolizin-3-yl]methyl4-[2-(2,6-dioxo-3-piperidyl)-1-oxo-isoindolin-5-yl]piperazine-1-carboxylate] | 250 to 1000 nM | ≤ 25% |
| CCc1cccc2cc(O)cc(-c3ncc4c(N5CC6CCC(C5)N6)nc(OC[C@@]56CCCN5[C@H](COC(=O)N5CCN(c7ccc8c(c7)CN(C7CCC(=O)N(C)C7=O)C8=O)CC5)CC6)nc4c3F)c12 (stereo partly drawn) [Compound 50, [(3S,8S)-8-[[4-(3,8-diazabicyclo[3.2.1]octan-3-yl)-7-(8-ethyl-3-hydroxy-1-naphthyl)-8-fluoro-pyrido[4,3-d]pyrimidin-2-yl]oxymethyl]-1,2,3,5,6,7-hexahydropyrrolizin-3-yl]methyl4-[2-(1-methyl-2,6-dioxo-3-piperidyl)-1-oxo-isoindolin-5-yl]piperazine-1-carboxylate] | < 5100 nM | ≤ 25% |
| CCc1cccc2cc(O)cc(-c3ncc4c(N5CC6CCC(C5)N6)nc(OC[C@@]56CCCN5[C@H](COC(=O)N5CCN(c7cccc8c7CN(C7CCC(=O)N(C)C7=O)C8=O)CC5)CC6)nc4c3F)c12 (stereo partly drawn) [Compound 52, [(3S,8S)-8-[[4-(3,8-diazabicyclo[3.2.1]octan-3-yl)-7-(8-ethyl-3-hydroxy-1-naphthyl)-8-fluoro-pyrido[4,3-d]pyrimidin-2-yl]oxymethyl]-1,2,3,5,6,7-hexahydropyrrolizin-3-yl]methyl 4-[2-(1-methyl-2,6-dioxo-3-piperidyl)-1-oxo-isoindolin-4-yl]piperazine-1-carboxylate] | 250 to 1000 nM | ≤ 25% |
